Measurements: patent US8440628B2, “Medical compositions containing ghrelin” (Daiichi Sankyo Company, Limited, priority 2002, dated 2013)

Assays:
[1] = Stability of human ghrelin in citrate buffer solutions, 40°C/2 weeks (Example 4); assay type: physicochemical
Description: The obtained solutions were filled in brownish glass ampoules and the ampoules were sealed with fire, then, each ampoules were stored at 40±1° C. for 2 weeks. After storage for 2 weeks, the HPLC analysis of the solutions was conducted to calculate the residual ratio from the concentration of human ghrelin. The change of pH value was also measured.

[2] = Adsorption inhibiting effect of anti-adsorbents on human ghrelin in glass and polypropylene test tubes (Example 9); assay type: physicochemical; details: human ghrelin 1.0 μg/mL in 5% mannitol-0.05M glycine hydrochloride buffer (pH 3.5), anti-adsorbent None (control)
Description: As the anti-adsorbent, the surfactant, that is, polyoxyethylene sorbitan monooleate (hereinafter, referred to as Tween® 80), and benzalkonium chloride were selected.
The anti-adsorbent was added to this solution with 0.01% or 0.1% concentration.
The human ghrelin concentrations of each solution were measured by HPLC method right after preparation, and these solutions were replaced in glass test tubes. After that, each solution were further replaced in new glass test tubes, and same operation was repeated for 5 and 10 times, then, the human ghrelin concentrations of each treated solution were measured by HPLC method. As a control, the solution not containing anti-adsorbent was examined.
Same procedure was repeated by using test tube made by polypropylene instead of glass test tube.

[3] = human ghrelin 0.5 mg/mL in citrate buffer solution pH 3.5, after storage for 40° C./2 weeks
[4] = human ghrelin 0.5 mg/mL in citrate buffer solution pH 3.5, just after preparation
[5] = human ghrelin 0.5 mg/mL in citrate buffer solution pH 4.0, after storage for 40° C./2 weeks
[6] = human ghrelin 0.5 mg/mL in citrate buffer solution pH 4.0, just after preparation
[7] = human ghrelin 0.5 mg/mL in citrate buffer solution pH 4.5, after storage for 40° C./2 weeks
[8] = human ghrelin 0.5 mg/mL in citrate buffer solution pH 4.5, just after preparation
[9] = human ghrelin 0.5 mg/mL in citrate buffer solution pH 5.0, after storage for 40° C./2 weeks
[10] = human ghrelin 0.5 mg/mL in citrate buffer solution pH 5.0, just after preparation

- Residual ratio [1, 3]: 89%
- pH observed [1, 3]: 3.5
- Residual ratio [1, 4]: 100%
- pH observed [1, 4]: 3.6
- Residual ratio [1, 5]: 88%
- pH observed [1, 5]: 4.0
- Residual ratio [1, 6]: 100%
- pH observed [1, 6]: 4.0
- Residual ratio [1, 7]: 86%
- pH observed [1, 7]: 4.4
- Residual ratio [1, 8]: 100%
- pH observed [1, 8]: 4.5
- Residual ratio [1, 9]: 85%
- pH observed [1, 9]: 4.9
- Residual ratio [1, 10]: 100%
- pH observed [1, 10]: 5.0
- Human ghrelin concentration of the solution (Initial Conc. = 100) ([2]; Glass tube, replaced 5 times): 0
- Human ghrelin concentration of the solution (Initial Conc. = 100) ([2]; Glass tube, replaced 10 times): 0
- Human ghrelin concentration of the solution (Initial Conc. = 100) ([2]; Initial Conc.): 100
- Human ghrelin concentration of the solution (Initial Conc. = 100) ([2]; Polypropylene tube, replaced 5 times): 51
- Human ghrelin concentration of the solution (Initial Conc. = 100) ([2]; Polypropylene tube, replaced 10 times): 19
SMILES: CCCCCCCC(=O)OC[C@H](NC(=O)[C@H](CO)NC(=O)CN)C(=O)N[C@@H](Cc1ccccc1)C(=O)N[C@@H](CC(C)C)C(=O)N[C@@H](CO)C(=O)N1CCC[C@H]1C(=O)N[C@@H](CCC(=O)O)C(=O)N[C@@H](Cc1c[nH]cn1)C(=O)N[C@@H](CCC(N)=O)C(=O)N[C@@H](CCCNC(=N)N)C(=O)N[C@H](C(=O)N[C@@H](CCC(N)=O)C(=O)N[C@@H](CCC(N)=O)C(=O)N[C@@H](CCCNC(=N)N)C(=O)N[C@@H](CCCCN)C(=O)N[C@@H](CCC(=O)O)C(=O)N[C@@H](CO)C(=O)N[C@@H](CCCCN)C(=O)N[C@@H](CCCCN)C(=O)N1CCC[C@H]1C(=O)N1CCC[C@H]1C(=O)N[C@@H](C)C(=O)N[C@@H](CCCCN)C(=O)N[C@@H](CC(C)C)C(=O)N[C@@H](CCC(N)=O)C(=O)N1CCC[C@H]1C(=O)N[C@@H](CCCNC(=N)N)C(=O)O)C(C)C [Human ghrelin]
